Literature values as cited in US6288033A, “Treatment of hepatitis B infection with thymosin alpha 1 in combination with lamivudine or in combination with lamivudine and famciclovir” (priority 1998, dated 2001).
Where two headings read alike, the source gives them in different places. No end group written: not given here.

Experiments:
[1] = up to 2 years, HIV-infected patients
HBV [2] = conditions: chronically infected chimpanzees
[3] = test system: HBV transfected cell lines
HBV [4] = conditions: duck model
[5] = test system: woodchuck hepatitis virus (WHV)
anti-HBs = conditions: previously non-reactive hemodialysis patients, after Heptavax-B vaccination
HBV [6] = test system: HBV
HBV [7] = test system: HBV; remark: listed apart in the source
HBV [8] = test system: HBV; remark: listed apart in the source
HBV [9] = conditions: 10 day course, 250 mg or 500 mg tid
[10] = test system: duck hepatitis B viral replication; conditions: for HBV DNA and DNA polymerase levels: within two days of start, maintained during 21 days; for time viral replication remained suppressed after dosing had stopped: then levels returned to pre-treatment
[11] = not given; remark: listed apart in the source
HBV [12] = conditions: 1 microgram/ml
[13] = North America and European patients

Molecule: Nc1ccn([C@@H]2CS[C@H](CO)O2)c(=O)n1 [lamivudine, 2'3'-dideoxy-3'thiacytidine]
- toxicity [1]: without significant toxicity
- antiviral activity (HBV [2]): has been shown
- antiviral activity [3]: has been shown
- antiviral activity (HBV [4]): has been shown

Molecule: Thymosin alpha 1 (Ac-SDAAVDTSSEITTKDLKEKKEVVEEAEN; UniProt P06454 2-29, looked up) [Tα1]
- treated animals with undetectable WHV DNA levels ([5]; 10 μg/Kg s.c. twice weekly, 28 weeks, 6 treated animals, end of treatment): 4 animals
- decrease in liver levels of WHV DNA replication intermediates ([5]; liver biopsy, the 4 animals with undetectable serum WHV DNA): 50 to 300 fold
- change in liver levels of WHV DNA replication intermediates ([5]; liver biopsy, the other 2 animals): only a small change from the pretreatment levels
- depression of WHV DNA levels ([5]; remaining 2 treated animals, end of treatment): 100 fold
- in vivo production of anti-HBs (anti-HBs): enhance
- CR (complete response), number of patients (HBV [6]; 1.6 mg S.C. 2×/week, 6 months, n=49): 7 patients
- CR (%) (HBV [6]; 1.6 mg S.C. 2×/week, 6 months, n=49, p 0.084): 14%
- patients with sustained loss of HBV DNA with negative HBeAg, number (HBV [6]; during the 1yr study or post study follow up): 12 patients
- patients with sustained loss of HBV DNA with negative HBeAg (HBV [6]; during the 1yr study or post study follow up, p<0.11 vs placebo): 25%
- DR (%) (HBV [6]; n=49): 10%
- DR (delayed response), number of patients (HBV [6]; n=49): 5 patients
- IR (%) (HBV [6]; n=49): 0%
- IR (incomplete response), number of patients (HBV [6]; n=49): 0 patients
- serum aminotransferase levels (HBV [7]; conclusion of the study (1 year), 12 patients received TF5 or Tα1 twice weekly for six months): improved significantly
- peripheral blood lymphocyte, CD3 and CD4 counts, in vitro production of interferon-gamma over initial values (HBV [7]; in responders to therapy): significant improvements
- side effects (HBV [7]; in vivo): No side effects were observed
- patients who cleared serum HBV DNA, number (HBV [7]; of 12 treated patients, 1 year): Nine
- patients who cleared serum HBV DNA (HBV [7]; of 12 treated patients, 1 year, p<0.004 vs placebo): 75%
- responders with sustained remission (normal ALT, negative serum HBV DNA by PCR and HBeAg) (HBV [7]; of the responders): About 78%
- safety and efficacy in clearing HBV DNA (HBV [7]; phase II studies, 1.45 to 1.75 mg (adults) per twice-weekly injection): safe and effective in clearing HBV DNA from the blood

Molecule: CC(=O)OCC(CCn1cnc2cnc(N)nc21)COC(C)=O [famciclovir, diacetyl ester of 6-deoxypenciclovir]
- tolerability (HBV [8]; adverse events profile similar to placebo): well tolerated
- HBV DNA and ALT levels (HBV [8]; up to 500 mg three times a day for 16 weeks, preliminary data): significant reduction
- evaluable patients with a greater than 90% fall in HBV DNA levels (HBV [9]): 6 of 11
- penciclovir concentration in the blood, Cmax (after a 500 mg oral famciclovir dose): 21.73 microgram/ml
- drug-related adverse effects on clinical laboratory values, blood pressure, heart rates or ECG (single and repeat doses up to 1000 mg three times daily for six days): no evidence of drug-related adverse effects
- absorption (volunteers, oral): well absorbed
- HBV DNA and DNA polymerase levels ([10]; oral 5 and 25 mg/kg twice a day): undetectable levels
- time viral replication remained suppressed after dosing had stopped [10]: at least two days
- frequency of adverse experiences and laboratory abnormalities versus placebo ([11]; 11 double-blind and 2 open trials, more than 3000 patients): similar
- most common adverse experiences ([11]; human, in vivo): headache, nausea and diarrhea

Molecule: Nc1nc2c(ncn2CCC(CO)CO)c(=O)[nH]1 [penciclovir]
- reduction in HBV DNA (HBV [12]; day 6): 50%
- reduction in HBV DNA (HBV [12]; day 9): 90%
- penciclovir concentration in the blood, Cmax (after a 5 mg/kg oral dose of penciclovir alone): approximately 0.14 microgram/ml
- HBV DNA and DNA polymerase levels ([10]; oral 20 and 100 mg/kg twice a day): undetectable levels
- time viral replication remained suppressed after dosing had stopped [10]: at least two days

Molecule: interferon-alpha
- of the HBeAg-clearing patients, clear HBsAg (hepatitis B virus (HBV); Asian patients): approximately 10%
- patients who clear HBeAg (hepatitis B virus (HBV); Asian patients): 15-20%
- of the HBeAg-clearing patients, ultimately cleared HBsAg (hepatitis B virus (HBV); [13]): 25-65%
- sustained clearance of hepatitis B e antigen (HBeAg), patients (hepatitis B virus (HBV); [13]): 30-40%
